{
  "source": "patent US4889941A",
  "about": "“Synthetic flavonoids as inhibitors of leukotrienes and 5-lipoxygenase” (Fisons Corporation, priority 1987, dated 1989)",
  "key": {"[1]": {"tested_on": "edema in a rat anaphylaxis test", "assay": "Rat anaphylaxis test (paw edema after bovine serum albumin challenge)", "assay_type": "in vivo", "settings": "for activity in the rat anaphylaxis test: administered as a suspension", "method": "Groups of 15-20 rats are intraperitoneally sensitized with 500 μg of bovine serum albumin-absorbed alum admixed with 2×10^10 killed Bordetella pertussis vaccine organisms. Fourteen days later, the paw volume is measured using a mercury plethysmometer. Immediately thereafter, the test compound suspended in about 1 ml of 1% Clearjel (\"Instant Clearjel\", a food grade pregelatinized starch from National Starch and Chemical Corporation, New York, N.Y.) at 100 mg/kg is administered ip and, one hour later, the right hind paw is injected subcutaneously with 100 μg of bovine serum albumin dissolved in 0.1 ml of saline. (In controls, no test compound is suspended in the Clearjel.) The paw volume is remeasured 90 minutes post antigenic challenge to determine the volume increase (Δ V) since the first measurement. The percent inhibition of edema is [formula] The effect of theophylline (90 mg/kg, po) is tested as a positive control."}, "[2]": {"assay": "Solubility in the balanced salts solution of the tissue bath", "assay_type": "physicochemical", "settings": "balanced salts solution of the LTC4 ilial assay"}, "[3]": {"tested_on": "leukotriene C4 (LTC4)", "assay": "Inhibition of LTC4-induced guinea pig ilial contractions", "assay_type": "cell-based", "settings": "Cavia porcellus, LTC4 6 nanomolar, read-out: percent inhibition of LTC4-induced contraction", "method": "Test for Inhibition of LTC4 -Induced Guinea Pig Ilial Contractions\nThe evaluation of potential anti-allergic compounds for antagonism of the in vitro effects of leukotriene C4 (LTC4) is conducted according to the following procedure. Guinea pig ilial strips are obtained from recently killed animals and hung in isolated tissue baths comprising a balanced solution of salts such as Krebs' solution. After allowing for one hour equilibration of the tissue in the bath, the gram tension (G.T.) on one tissue is arbitrarily set at one. LTC4 (6 nanomolar concentration) is then added to the tissue bath. This induces a long, sustained contraction of the tissue that is measured on the strip chart recorder (the G.T. increases to about 2). After the LTC4 -induced contraction has plateaued and remains stable, increasing amounts of the test compound are added to the bath. If the compound is effective, a decrease in the G.T. (Δ G.T.) from the LTC4 -induced value is seen (e.g., from 2 to 1.5). The percent inhibition at each concentration is calculated according to the formula: [formula] Four replicate tissues are run."}, "[4]": {"biological_target": "T1, 5-lipoxygenase (Homo sapiens, UniProt P09917)", "T1 sequence (P09917 1-674)": "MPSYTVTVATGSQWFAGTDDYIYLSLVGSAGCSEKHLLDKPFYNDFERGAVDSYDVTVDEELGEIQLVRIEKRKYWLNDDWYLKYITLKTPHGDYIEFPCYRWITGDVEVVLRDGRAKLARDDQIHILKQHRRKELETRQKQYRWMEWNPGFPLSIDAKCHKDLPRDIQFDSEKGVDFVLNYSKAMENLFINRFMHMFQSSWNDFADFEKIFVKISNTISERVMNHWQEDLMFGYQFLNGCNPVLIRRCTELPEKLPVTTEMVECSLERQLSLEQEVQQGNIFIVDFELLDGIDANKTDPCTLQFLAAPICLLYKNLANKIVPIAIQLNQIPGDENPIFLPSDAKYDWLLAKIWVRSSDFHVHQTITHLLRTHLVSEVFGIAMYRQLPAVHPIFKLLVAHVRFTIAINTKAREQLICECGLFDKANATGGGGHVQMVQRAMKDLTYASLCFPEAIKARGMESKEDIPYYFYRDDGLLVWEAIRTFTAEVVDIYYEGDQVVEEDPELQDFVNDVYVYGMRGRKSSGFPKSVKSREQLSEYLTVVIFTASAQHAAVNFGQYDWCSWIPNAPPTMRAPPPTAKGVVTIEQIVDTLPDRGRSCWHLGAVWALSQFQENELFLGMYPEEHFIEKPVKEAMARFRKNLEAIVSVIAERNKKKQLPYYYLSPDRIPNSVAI", "assay": "Inhibition of 5-lipoxygenase (5-HETE formation from arachidonic acid, HPLC)", "assay_type": "biochemical", "settings": "arachidonic acid 1 mg/ml, pH 7.4, 6 minutes at 30° C.", "method": "Test for Inhibition of 5-Lipoxygenase\nThis test is based on the procedure of Arai et al., J. Med. Chem., Vol. 26, 72 (1983).\nArachidonic acid in the presence of the enzyme 5-lipoxygenase is converted to 5-hydroxy-eicosatetraenoic acid (5-HETE) through a 2-step process. To assess the activity of a test compound on 5-lipoxygenase activity, a specific concentration of the test compound is added to 1 mg/ml of arachidonic acid in the presence of the appropriate amount of 5-lipoxygenase in a solution of potassium phosphate buffer containing 1 mM CaCl2 at pH 7.4. The reaction is carried out for 6 minutes at 30° C. in a total volume of 500 μl. The reaction is stopped by addition of lM citric acid. The 5-HETE is extracted and quantitated using high performance liquid chromatography. The percent activity is calculated as follows: [formula]"}},
  "note": "Where a name gives a salt, the structure may show the parent alone.",
  "data": [
    {"smiles": "O=c1c(-c2ccccc2)c(-c2ccccc2)oc2cc(OCC(O)CNCCc3ccccc3)ccc12", "note": "(stereo not shown) [Example 18, 3-Phenyl-7-(3-phenethylamino-2-hydroxypropoxy)flavone]", "values": [
      {"measurement": "activity in the rat anaphylaxis test", "setting": "[1]", "value": "active"},
      {"measurement": "solubility in the balanced salts solution", "setting": "[2]", "value": "insoluble"}
    ]},
    {"smiles": "COc1ccc(CCNCC(O)COc2ccc3c(=O)cc(-c4ccccc4)oc3c2)cc1OC", "note": "(stereo not shown) [Example 1, 7-[3-[(3,4-dimethoxyphenethyl)amino]-2-hydroxypropoxy]flavone Maleate]", "values": [
      {"measurement": "inhibition at 10 µM", "setting": "[3]; final tissue bath concentration 1×10^-5 M", "value": 94, "unit": "%"},
      {"measurement": "inhibition at 1 µM", "setting": "[3]; final tissue bath concentration 1×10^-6 M", "value": 52.3, "unit": "%"},
      {"measurement": "inhibition at 5 µM", "setting": "[3]; final tissue bath concentration 5×10^-6 M", "value": 89.8, "unit": "%"}
    ]},
    {"smiles": "O=c1cc(-c2ccccc2)oc2cc(OCC(O)CN3CCN(c4ccccc4)CC3)ccc12", "note": "(stereo not shown) [Example 12, 7-[3-(N-phenylpiperazinyl)-2-hydroxypropoxy]flavone]", "values": [
      {"measurement": "activity in the rat anaphylaxis test", "setting": "[1]", "value": "active"},
      {"measurement": "solubility in the balanced salts solution", "setting": "[2]", "value": "insoluble"}
    ]},
    {"smiles": "O=c1c(-c2ccccc2)c(-c2ccccc2)oc2cc(OCC(O)CNc3ccccc3)ccc12", "note": "(stereo not shown) [Example 19, 3-Phenyl-7-(3-anilino-2-hydroxypropoxy)flavone]", "values": [
      {"measurement": "activity in the Rat Anaphylaxis test", "setting": "[1]; as hydrochloric acid salt", "value": "inactive"},
      {"measurement": "activity in the Rat Anaphylaxis test", "setting": "[1]; free base form", "value": "active"}
    ]},
    {"smiles": "O=c1cc(-c2ccccc2)oc2cc(OCC(O)CNCC(O)COc3ccccc3)ccc12", "note": "(stereo not shown) [Example 11, 7-[3-[3-phenoxy-2-(hydroxypropyl)amino]-2-hydroxypropoxy]flavone Hydrochloride]", "values": [
      {"measurement": "activity in the rat anaphylaxis test", "setting": "[1]", "value": "active"},
      {"measurement": "solubility in the balanced salts solution", "setting": "[2]", "value": "insoluble"}
    ]},
    {"smiles": "Br.O=c1cc(-c2ccccc2)oc2cc(OCC(O)CNCCc3ccc(O)c(O)c3)ccc12", "note": "(stereo not shown) [Example 14, 7-[3-[(3,4-Dihydroxyphenethyl)amino]-2-hydroxypropoxy]flavone Hydrobromide]", "values": [
      {"measurement": "percent inhibition of edema", "setting": "[1]; rat, 100 mg/kg ip in 1% Clearjel, paw volume 90 minutes post antigenic challenge", "value": 63, "unit": "%"},
      {"measurement": "IC50", "setting": "[4]", "value": "~90", "unit": "nM"}
    ]}
  ]
}
